Reference: EP1260232A1, “REMEDIES FOR MALIGNANT TUMOR-CONCOMITANT NEUROSIS AND AZOOR OR ANALOGOUS DISEASES THEREOF” (priority 2000, dated 2001)

Tests used:
apoptosis caused by CAR = assay: Therapeutic effect on cancer-associated neuropathy: ERG in rats after intravitreal anti-recoverin and anti-hsp70 antibodies; type: in vivo; conditions: Lewis rats, light for 24 hours; nilvadipine 3.2 mg/kg/day peritoneal for two weeks with antibody infusion into vitreous body; follow-up five weeks; compared with predonine 0.6 µg/kg/day i.m. and cyclosporine A 10 mg/kg/day i.m.; Fig. 1
Procedure: Test animal: Lewis rats (8 weeks of age) Treatment group 5 animals (10 eyes) Control group 5 animals (10 eyes) Photoenvironment: Apoptosis (cell death) was induced under light for 24 hours. Test drugs: Nilvadipine (3.2 mg/kg/day) by peritoneal administration (dissolving solution) polyethylene glycol 400: ethanol: water = 1:1:2 Predonine (0.6 µg/kg/day) by intramuscular injection (dissolving solution) PBS (phosphate buffer solution) Cyclosporine A (10 mg/kg/day) by intramuscular injection (dissolving solution) olive oil Antibodies: anti-recoverin antibody (5 µl/eye) anti-hsp70 antibody (5 µl/eye) Administration method: Test drugs were administered for two weeks along with infusion of antibodies into vitreous body of the eye. Follow-up observation was performed for five weeks after the start of administration. PBS alone was administered to the control group.
In Fig. 1, the vertical axis represents ERG (electroretinogram) amplitude, and the horizontal axis is the lapse of time in weeks. Δ: nilvadipine group; □: predonine group; ◇: cyclosporin A group; and ○: control group.

[1] = Clinical case: therapeutic effect on AZOOR, static visual field examination (Humphrey visual field analyzer); type: in vivo; conditions: one AZOOR patient
Description: Case: History of the present illness: The patient became aware of dark and blurred vision in the center of their visual field on September 1, 1999, and visited Ohyachi Kyoritsu Eye Clinic on September 4 in the same year.. […] ERG was subnormal and normal for the right and left eyes, respectively. […] FAG detected mild leakage of fluorescein from the optic disc of the right eye. In view of these observations, optic nerve disorder was suspected and the patient was made to visit a brain surgeon in the neighborhood to receive CT and MRT examinations. However, no abnormality was found. […] To treat the eye symptom, the clinic prescribed oral medications such as drug for ameliorating circulation for a while, but no improvement of visual field was observed. Thus, on October 1, 1999, the patient was referred to the Department of ophthalmology at Sapporo Medical University, School of Medicine for close examination. Results of the first examination: Visual acuity was Vd=1.2 and Vs=1.2. Although pupils were round and equal in size, the right eye was RAPD(+) but no oculomotor abnormalities were observed. […] In the static visual field examination, reduction of the sensitivity in the central visual field was observed. Course of disease: Oral administration of prednisolone (40mg/day) was started on October 1, 1999. […]

For `COC(=O)C1=C(C#N)NC(C)=C(C(=O)OC(C)C)C1c1cccc([N+](=O)[O-])c1` (stereo not drawn) [nilvadipine, isopropyl 6-cyano-5-methoxycarbonyl-2-methyl-4-(3-nitrophenyl)-1,4-di hydropyridine-3-carboxylate ester], the “ERG (electroretinogram) amplitude” value (apoptosis caused by CAR) was “more effective than predonine and cyclosporin A” and the “static visual field examination / visual sensitivity” value ([1]; two months after start of oral nilvadipine, following 0.3 ml Depo-Medrol sub-Tenon's injection to both eyes, Figs. 4 and 5) was “remarkable improvement of visual sensitivity”.
In the case of `C[C@]12C=CC(=O)C=C1CC[C@@H]1[C@@H]2[C@@H](O)C[C@@]2(C)[C@H]1CC[C@]2(O)C(=O)CO` [prednisolone], the visual field ([1]; oral prednisolone 40 mg/day reduced stepwise to 10 mg/day, October-November 1999, Figs. 2 and 3) is reported as “could not improve the visual field”.
